# Measurements: publication PMC9090415, “Discovery of small molecule inhibitors of Plasmodium falciparum apicoplast DNA polymerase” (Journal of Enzyme Inhibition and Medicinal Chemistry, 2022)
# Like-named read-outs stand apart in the source and are kept apart here.
# Target: P. falciparum apicoplast DNA polymerase (Pf-apPOL) (Plasmodium falciparum, UniProt Q8ILY1)
# Test: Fluorescence-based high-throughput DNA polymerase assay (molecular beacon), primary screen and dose-response;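 for % inhibition Apol 40': compound concentration given in µM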
# Assay type: biochemical
# Settings: for DNA Pol: 90 min, 10 µM
# Summary of the method: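 Single-point screening used 10 µM compound with 20 nM polymerase, 20 nM hairpin substrate and 6 µM dNTPs for 90 min at 25 °C. Confirmatory titrations (2.5–80 µM) followed fluorescence at three times, and IC50 was derived from a fit including a cooperativity term n.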
# [1] = "DNA Pol" of the 186 hits list (screen value)
# Sequence of P. falciparum apicoplast DNA polymerase (Pf-apPOL) (Q8ILY1 entry or part of it): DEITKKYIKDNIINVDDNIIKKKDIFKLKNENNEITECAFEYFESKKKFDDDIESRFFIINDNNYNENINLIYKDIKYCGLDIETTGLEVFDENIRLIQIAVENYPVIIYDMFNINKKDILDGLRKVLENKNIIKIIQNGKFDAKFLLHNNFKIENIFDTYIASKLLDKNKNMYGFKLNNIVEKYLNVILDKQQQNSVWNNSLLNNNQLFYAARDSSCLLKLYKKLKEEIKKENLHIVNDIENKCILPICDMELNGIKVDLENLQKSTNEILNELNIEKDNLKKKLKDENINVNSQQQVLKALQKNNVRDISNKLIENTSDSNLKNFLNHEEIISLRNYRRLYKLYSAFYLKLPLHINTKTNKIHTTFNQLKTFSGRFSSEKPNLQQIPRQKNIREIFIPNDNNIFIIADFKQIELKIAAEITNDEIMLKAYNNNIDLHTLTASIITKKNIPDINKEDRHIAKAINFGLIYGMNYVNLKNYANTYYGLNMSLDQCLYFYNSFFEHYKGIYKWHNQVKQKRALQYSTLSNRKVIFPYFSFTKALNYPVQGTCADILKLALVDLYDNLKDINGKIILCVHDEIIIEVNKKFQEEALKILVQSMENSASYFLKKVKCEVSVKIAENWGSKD
smiles,measurement,setting,value
O=C(Nc1ccc2c(c1)Cc1cc(NC(=O)c3ccco3)ccc1-2)c1ccco1 [KU0038977],DNA Pol,[1],27
same,% inhibition Apo pol 10',"DRC-1, concentration 2.5",-0.5837%
same,% inhibition Apo pol 10',"DRC-1, concentration 5",5.785%
same,% inhibition Apo pol 10',"DRC-1, concentration 10",28.4085%
same,% inhibition Apo pol 10',"DRC-1, concentration 20",37.8617%
same,% inhibition Apo pol 10',"DRC-1, concentration 40",75.7214%
same,% inhibition Apo pol 10',"DRC-1, concentration 80",91.1334%
same,% inhibition Apol 90',"DRC-1, concentration 2.5",-0.5506%
same,% inhibition Apol 90',"DRC-1, concentration 5",1.199%
same,% inhibition Apol 90',"DRC-1, concentration 10",17.4686%
same,% inhibition Apol 90',"DRC-1, concentration 20",25.9%
same,% inhibition Apol 90',"DRC-1, concentration 40",60.9972%
same,% inhibition Apol 90',"DRC-1, concentration 80",80.3159%
same,% inhibition apPOL 180',"DRC-1, concentration 2.5",-0.3262%
same,% inhibition apPOL 180',"DRC-1, concentration 5",0.08289%
same,% inhibition apPOL 180',"DRC-1, concentration 10",10.649%
same,% inhibition apPOL 180',"DRC-1, concentration 20",16.9681%
same,% inhibition apPOL 180',"DRC-1, concentration 40",47.3942%
same,% inhibition apPOL 180',"DRC-1, concentration 80",72.1517%
same,% inhibition Apo pol 5',"DRC-2, concentration 2.5",21%
same,% inhibition Apo pol 5',"DRC-2, concentration 5",10%
same,% inhibition Apo pol 5',"DRC-2, concentration 10",35%
same,% inhibition Apo pol 5',"DRC-2, concentration 20",42%
same,% inhibition Apo pol 5',"DRC-2, concentration 40",53%
same,% inhibition Apo pol 5',"DRC-2, concentration 80",27%
same,% inhibition Apol 40',"DRC-2, concentration 2.5",30%
same,% inhibition Apol 40',"DRC-2, concentration 5",10%
same,% inhibition Apol 40',"DRC-2, concentration 10",40%
same,% inhibition Apol 40',"DRC-2, concentration 20",52%
same,% inhibition Apol 40',"DRC-2, concentration 40",69%
same,% inhibition Apol 40',"DRC-2, concentration 80",58%
same,% inhibition ApPOL 90',"DRC-2, concentration 2.5",29%
same,% inhibition ApPOL 90',"DRC-2, concentration 5",6.46%
same,% inhibition ApPOL 90',"DRC-2, concentration 10",35%
same,% inhibition ApPOL 90',"DRC-2, concentration 20",50%
same,% inhibition ApPOL 90',"DRC-2, concentration 40",71%
same,% inhibition ApPOL 90',"DRC-2, concentration 80",65%
same,% inhibition apPOL 180',"DRC-2, concentration 2.5",20%
same,% inhibition apPOL 180',"DRC-2, concentration 5",-3.38%
same,% inhibition apPOL 180',"DRC-2, concentration 10",23%
same,% inhibition apPOL 180',"DRC-2, concentration 20",40%
same,% inhibition apPOL 180',"DRC-2, concentration 40",68%
same,% inhibition apPOL 180',"DRC-2, concentration 80",69%
same,DNA Pol,"primary screen value, DNA Pol",27
OC(C#Cc1ccccc1)c1ccco1 (stereo not drawn) [Molecule 95],IC50,"read-out: IC50 Pf-apPOL, Table 2",7.4 ± 0.4 µM
same,IC50,"supplemental file 2, sheet IC50 nontoxic compounds, Pf-apPOL",7.4 µM
"Cc1ccc(NC(=O)C2CCN(C(=O)c3cc4ccsc4[nH]3)CC2)c(Br)c1 [Molecule 14, O=C(C1CCN(CC1)C(=O)c1cc2c([nH]1)scc2)Nc1ccc(cc1Br)C]",DNA Pol,[1],67
same,% inhibition Apo pol 10',"DRC-1, concentration 2.5",11%
same,% inhibition Apo pol 10',"DRC-1, concentration 5",36%
same,% inhibition Apo pol 10',"DRC-1, concentration 10",68%
same,% inhibition Apo pol 10',"DRC-1, concentration 20",88%
same,% inhibition Apo pol 10',"DRC-1, concentration 40",87%
same,% inhibition Apo pol 10',"DRC-1, concentration 80",89%
same,% inhibition Apol 90',"DRC-1, concentration 2.5",6%
same,% inhibition Apol 90',"DRC-1, concentration 5",22%
same,% inhibition Apol 90',"DRC-1, concentration 10",48%
same,% inhibition Apol 90',"DRC-1, concentration 20",76%
same,% inhibition Apol 90',"DRC-1, concentration 40",77%
same,% inhibition Apol 90',"DRC-1, concentration 80",84%
same,% inhibition apPOL 180',"DRC-1, concentration 2.5",5%
same,% inhibition apPOL 180',"DRC-1, concentration 5",12%
same,% inhibition apPOL 180',"DRC-1, concentration 10",30%
same,% inhibition apPOL 180',"DRC-1, concentration 20",61%
same,% inhibition apPOL 180',"DRC-1, concentration 40",63%
same,% inhibition apPOL 180',"DRC-1, concentration 80",75%
same,% inhibition Apo pol 5',"DRC-2, concentration 2.5",11%
same,% inhibition Apo pol 5',"DRC-2, concentration 5",22%
same,% inhibition Apo pol 5',"DRC-2, concentration 10",43%
same,% inhibition Apo pol 5',"DRC-2, concentration 20",50%
same,% inhibition Apo pol 5',"DRC-2, concentration 40",54%
same,% inhibition Apo pol 5',"DRC-2, concentration 80",48%
same,% inhibition Apol 40',"DRC-2, concentration 2.5",9%
same,% inhibition Apol 40',"DRC-2, concentration 5",22%
same,% inhibition Apol 40',"DRC-2, concentration 10",49%
same,% inhibition Apol 40',"DRC-2, concentration 20",62%
same,% inhibition Apol 40',"DRC-2, concentration 40",68%
same,% inhibition Apol 40',"DRC-2, concentration 80",67%
same,% inhibition ApPOL 90',"DRC-2, concentration 2.5",8.49%
same,% inhibition ApPOL 90',"DRC-2, concentration 5",18%
same,% inhibition ApPOL 90',"DRC-2, concentration 10",45%
same,% inhibition ApPOL 90',"DRC-2, concentration 20",61%
same,% inhibition ApPOL 90',"DRC-2, concentration 40",68%
same,% inhibition ApPOL 90',"DRC-2, concentration 80",70%
same,% inhibition apPOL 180',"DRC-2, concentration 2.5",2.63%
same,% inhibition apPOL 180',"DRC-2, concentration 5",12%
same,% inhibition apPOL 180',"DRC-2, concentration 10",34%
same,% inhibition apPOL 180',"DRC-2, concentration 20",52%
same,% inhibition apPOL 180',"DRC-2, concentration 40",64%
same,% inhibition apPOL 180',"DRC-2, concentration 80",69%
same,% inhibition Apo pol 10',"first DRC, concentration 2.5",11%
same,% inhibition Apo pol 10',"first DRC, concentration 10",68%
same,% inhibition Apol 90',"first DRC, concentration 5",22%
same,% inhibition Apol 90',"first DRC, concentration 10",48%
same,% inhibition apPOL 180',"first DRC, concentration 5",12%
same,% inhibition apPOL 180',"first DRC, concentration 20",61%
same,DNA Pol,"primary screen value, DNA Pol",67
